This note sets out measurements from patent publication US20260158031A1, “AROMATIC HETEROCYCLIC COMPOUND, PHARMACEUTICAL COMPOSITION CONTAINING THE SAME, AND USE THEREOF” (HANG ZHOU YUHONG PHARMATECH CO., LTD., priority 2021, published 2026).

Data set [1] is described as follows: In vivo exposure detection in SD rats (plasma, LC-MS/MS). As to conditions: IG 20 mg/kg, average value. On the procedure:
Preparation and processing of standard curves and quality control samples: the compound stock solution was taken and diluted with 50% methanol and water into standard working solutions containing respective compounds at concentrations of 20, 40, 100, 200, 400, 1,000, 2,000, 4,000, and 10,000 ng/mL respectively and quality control working solutions at concentrations of 60, 600 and 8,000 ng/mL respectively. Each 47.5 μL of blank rat plasma was taken and added with 2.50 μL of a standard curve working solution and a quality control working solution respectively to prepare standard curve samples containing respective compounds at concentrations of 1.00, 2.00, 5.00, 10.00, 20.00, 50.00, 100.00, 200.00 and 500.00 ng/mL and quality control samples with concentrations of 3.00, 30.00 and 400.00 ng/mL. The samples were respectively added with 200 μL of acetonitrile (containing 2 ng/mL of verapamil as an internal standard), vortexed with shaking for 3 min, and then centrifuged at 20,000 rcf and 4° C. for 10 min, and the supernatant was taken for LC-MS/MS analysis.
Preparation and processing of plasma sample to be tested: 50 μL of the plasma sample was taken, added with 200 μL of acetonitrile (containing 2 ng/ml of verapamil as an internal standard), vortexed with shaking for 3 min, and then centrifuged at 20,000 rcf and 4° C. for 10 min, and […] for LC-MS/MS analysis.

In a further data set the test system is SRBC mouse model. The data set is described as follows: SRBC-induced delayed type hypersensitivity (DTH) in mice. It is filed as in vivo. As to conditions: male Balb/c mice, 100 mg/kg by gavage once a day, day 0 to day 6, FIG. 1. As for the experimental part:
PF-06651600 was used as a positive control compound.
Drug preparation: the compound was weighed and added with a 0.5% CMC-Na solution to prepare a drug suspension (with an administration dose of 10 mg/mL).
Induction of delayed type hypersensitivity (DTH) and administration: 30 male Balb/c mice were weighed and randomly divided into 6 groups according to body weight, with 5 mice in each group. The experimental period lasted for 7 days in total. On day 0, the mice were subcutaneously injected with sheep red blood cells (SRBCs) for sensitization. From day 0, the mice were administrated with 100 mg/kg by gavage (once a day) until day 6. On day 6, SRBCs were injected into the right hind foot pad of the mice for excitation. On day 7 of the experiment, measurements were conducted, photographs were taken, and the experiment was ended.
Pharmacodynamic detection indicators of disease models: the detection and observation indicators were the degree of redness and swelling and detected thicknesses of paw pads of the mice in the model group as induced by SRBC. The thickness of the right paw was measured as the baseline before the SRBC injection excitation on day 6. At the end of the experiment […], the thickness of the right paw was measured again, and the difference in thickness of the paw before and after the second injection was calculated.
Statistical processing: experimental data was expressed as mean±standard deviation (Mean±SD). All data was statistically analyzed using a T-test. P<0.05 was considered to be statistically different.

For the molecule `C=C(F)C(=O)N1CCc2c(c(-c3ccnc4[nH]ccc34)nn2C)C1` [YZ001054], in data set [1], the AUClast_D is 93.88 kg·ng·h/mL/mg, the Cl_F_obs stood at 235.1403 mL/min/kg, the HL_Lambda_z was 1.4162 h and the Vz_F_obs is 34.35946 L/kg. In data set [1] (Sprague-Dawley (SD), rat, po), the AUC(0-t) (usually the area under the concentration-time curve up to a stated or last time point) stood at 1880 ng·h/mL; the Cmax (in general, the highest concentration seen after dosing) is 1360 ng/mL; the Tmax (usually the time from dosing to the highest level) worked out at 4.5 h. The AUC(0-inf) in data set [1] (Sprague-Dawley (SD), rat, po, read-out: AUCINF_obs) was determined as 1900 ng·h/mL. For the same molecule, the MRT inf in data set [1] (Sprague-Dawley (SD), rat, po, read-out: MRTINF_obs) came to 1.95 h. Also, the “immunosuppressive effect on SRBC-induced delayed type hypersensitivity (right paw thickness)” value in the data set on SRBC mouse model is reported as “significant immunosuppressive effects”.
